{
  "source": "paper PMC10247784",
  "about": "“Physiological activation of human and mouse bitter taste receptors by bile acids” (Communications Biology, 2023)",
  "target": "T1, mouse Tas2r144 (Mus musculus, UniProt Q7TQB8)",
  "T1 construct": "expressed in transfected cells; host or cells: HEK293T-Gα16gust44",
  "T1 sequence (Q7TQB8 whole entry)": "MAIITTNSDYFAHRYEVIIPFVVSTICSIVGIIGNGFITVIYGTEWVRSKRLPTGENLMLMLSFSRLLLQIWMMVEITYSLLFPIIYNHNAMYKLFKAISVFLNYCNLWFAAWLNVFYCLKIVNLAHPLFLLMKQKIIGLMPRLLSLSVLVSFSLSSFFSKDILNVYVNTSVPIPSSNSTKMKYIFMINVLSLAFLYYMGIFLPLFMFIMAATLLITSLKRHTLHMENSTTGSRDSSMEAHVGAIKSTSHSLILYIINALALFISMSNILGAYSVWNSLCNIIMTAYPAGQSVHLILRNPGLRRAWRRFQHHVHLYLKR",
  "test": "Calcium imaging assay (FLIPR), HEK293T-Gα16gust44 cells transfected with mouse Tas2r144",
  "type": "cell-based",
  "data": [
    {"molecule": "C[C@H](CCC(=O)NCCS(=O)(=O)O)[C@H]1CC[C@H]2[C@@H]3CC[C@@H]4C[C@H](O)CC[C@]4(C)[C@H]3CC[C@]12C", "note": "[Taurolithocholic Acid, taurolithocholic acid]", "values": [
      {"measurement": "RLU", "setting": "Time 0 s", "value": 0, "unit": "RLU"},
      {"measurement": "RLU", "setting": "Time 2 s", "value": 14.6538, "unit": "RLU"},
      {"measurement": "RLU", "setting": "Time 4 s", "value": 0.2718, "unit": "RLU"},
      {"measurement": "RLU", "setting": "Time 6 s", "value": -11.922, "unit": "RLU"},
      {"measurement": "RLU", "setting": "Time 8 s", "value": 1.321, "unit": "RLU"},
      {"measurement": "RLU", "setting": "Time 12 s", "value": 10.4417, "unit": "RLU"},
      {"measurement": "RLU", "setting": "Time 14 s", "value": -10.556, "unit": "RLU"},
      {"measurement": "RLU", "setting": "Time 16 s", "value": -6.199, "unit": "RLU"},
      {"measurement": "RLU", "setting": "Time 18 s", "value": 24.6697, "unit": "RLU"},
      {"measurement": "RLU", "setting": "Time 18.781 s", "value": 60.5615, "unit": "RLU"},
      {"measurement": "RLU", "setting": "Time 20.781 s", "value": -19.5171, "unit": "RLU"},
      {"measurement": "RLU", "setting": "Time 22.781 s", "value": -4.009, "unit": "RLU"},
      {"measurement": "RLU", "setting": "Time 24.781 s", "value": -20.7725, "unit": "RLU"},
      {"measurement": "RLU", "setting": "Time 26.781 s", "value": 1.348, "unit": "RLU"},
      {"measurement": "RLU", "setting": "Time 28.781 s", "value": -0.7767, "unit": "RLU"},
      {"measurement": "RLU", "setting": "Time 30.781 s", "value": 41.688, "unit": "RLU"},
      {"measurement": "RLU", "setting": "Time 32.781 s", "value": 71.1245, "unit": "RLU"},
      {"measurement": "RLU", "setting": "Time 34.781 s", "value": 105.382, "unit": "RLU"},
      {"measurement": "RLU", "setting": "Time 36.781 s", "value": 151.604, "unit": "RLU"},
      {"measurement": "RLU", "setting": "Time 38.781 s", "value": 184.237, "unit": "RLU"},
      {"measurement": "RLU", "setting": "Time 40.781 s", "value": 248.501, "unit": "RLU"},
      {"measurement": "RLU", "setting": "Time 42.781 s", "value": 269.502, "unit": "RLU"},
      {"measurement": "RLU", "setting": "Time 44.781 s", "value": 268.298, "unit": "RLU"},
      {"measurement": "RLU", "setting": "Time 46.781 s", "value": 327.359, "unit": "RLU"},
      {"measurement": "RLU", "setting": "Time 48.781 s", "value": 341.375, "unit": "RLU"},
      {"measurement": "RLU", "setting": "Time 50.781 s", "value": 358.126, "unit": "RLU"},
      {"measurement": "RLU", "setting": "Time 52.781 s", "value": 372.318, "unit": "RLU"},
      {"measurement": "RLU", "setting": "Time 54.781 s", "value": 375.128, "unit": "RLU"},
      {"measurement": "RLU", "setting": "Time 56.781 s", "value": 360.867, "unit": "RLU"},
      {"measurement": "RLU", "setting": "Time 58.781 s", "value": 388.738, "unit": "RLU"},
      {"measurement": "RLU", "setting": "Time 60.781 s", "value": 413.492, "unit": "RLU"},
      {"measurement": "RLU", "setting": "Time 62.781 s", "value": 416.863, "unit": "RLU"},
      {"measurement": "RLU", "setting": "Time 64.781 s", "value": 424.583, "unit": "RLU"},
      {"measurement": "RLU", "setting": "Time 66.781 s", "value": 428.264, "unit": "RLU"},
      {"measurement": "RLU", "setting": "Time 68.781 s", "value": 426.421, "unit": "RLU"},
      {"measurement": "RLU", "setting": "Time 70.781 s", "value": 448.262, "unit": "RLU"},
      {"measurement": "RLU", "setting": "Time 72.781 s", "value": 417.687, "unit": "RLU"},
      {"measurement": "RLU", "setting": "Time 74.781 s", "value": 456.073, "unit": "RLU"},
      {"measurement": "RLU", "setting": "Time 76.781 s", "value": 430.589, "unit": "RLU"},
      {"measurement": "RLU", "setting": "Time 78.781 s", "value": 445.771, "unit": "RLU"},
      {"measurement": "RLU", "setting": "Time 80.781 s", "value": 460.032, "unit": "RLU"},
      {"measurement": "RLU", "setting": "Time 82.781 s", "value": 446.511, "unit": "RLU"},
      {"measurement": "RLU", "setting": "Time 84.781 s", "value": 409.522, "unit": "RLU"},
      {"measurement": "RLU", "setting": "Time 86.781 s", "value": 409.191, "unit": "RLU"},
      {"measurement": "RLU", "setting": "Time 88.781 s", "value": 405.957, "unit": "RLU"},
      {"measurement": "RLU", "setting": "Time 90.781 s", "value": 381.655, "unit": "RLU"},
      {"measurement": "RLU", "setting": "Time 92.781 s", "value": 387.142, "unit": "RLU"},
      {"measurement": "RLU", "setting": "Time 94.781 s", "value": 402.42, "unit": "RLU"},
      {"measurement": "RLU", "setting": "Time 96.781 s", "value": 404.326, "unit": "RLU"},
      {"measurement": "RLU", "setting": "Time 98.781 s", "value": 373.324, "unit": "RLU"},
      {"measurement": "RLU", "setting": "Time 100.781 s", "value": 389.827, "unit": "RLU"},
      {"measurement": "RLU", "setting": "Time 102.781 s", "value": 378.133, "unit": "RLU"},
      {"measurement": "RLU", "setting": "Time 104.781 s", "value": 393.124, "unit": "RLU"},
      {"measurement": "RLU", "setting": "Time 106.781 s", "value": 394.729, "unit": "RLU"},
      {"measurement": "RLU", "setting": "Time 108.781 s", "value": 385.581, "unit": "RLU"},
      {"measurement": "RLU", "setting": "Time 110.781 s", "value": 380.059, "unit": "RLU"},
      {"measurement": "RLU", "setting": "Time 112.781 s", "value": 389.586, "unit": "RLU"},
      {"measurement": "RLU", "setting": "Time 114.781 s", "value": 357.6, "unit": "RLU"},
      {"measurement": "RLU", "setting": "Time 116.781 s", "value": 386.704, "unit": "RLU"},
      {"measurement": "RLU", "setting": "Time 118.781 s", "value": 385.665, "unit": "RLU"},
      {"measurement": "RLU", "setting": "Time 120.781 s", "value": 364.459, "unit": "RLU"},
      {"measurement": "RLU", "setting": "Time 122.781 s", "value": 361.618, "unit": "RLU"},
      {"measurement": "RLU", "setting": "Time 124.781 s", "value": 373.746, "unit": "RLU"},
      {"measurement": "RLU", "setting": "Time 126.781 s", "value": 327.57, "unit": "RLU"},
      {"measurement": "RLU", "setting": "Time 128.781 s", "value": 359.155, "unit": "RLU"},
      {"measurement": "RLU", "setting": "Time 130.781 s", "value": 325.368, "unit": "RLU"},
      {"measurement": "RLU", "setting": "Time 132.781 s", "value": 293.828, "unit": "RLU"},
      {"measurement": "RLU", "setting": "Time 134.781 s", "value": 312.409, "unit": "RLU"},
      {"measurement": "RLU", "setting": "Time 136.781 s", "value": 298.284, "unit": "RLU"},
      {"measurement": "RLU", "setting": "Time 137.578 s", "value": 290.936, "unit": "RLU"},
      {"measurement": "RLU", "setting": "Time 143.578 s", "value": 296.494, "unit": "RLU"},
      {"measurement": "RLU", "setting": "Time 149.578 s", "value": 267.674, "unit": "RLU"},
      {"measurement": "RLU", "setting": "Time 155.578 s", "value": 285.393, "unit": "RLU"},
      {"measurement": "RLU", "setting": "Time 161.578 s", "value": 243.081, "unit": "RLU"},
      {"measurement": "RLU", "setting": "Time 167.578 s", "value": 210.334, "unit": "RLU"},
      {"measurement": "RLU", "setting": "Time 173.578 s", "value": 225.862, "unit": "RLU"},
      {"measurement": "RLU", "setting": "Time 179.578 s", "value": 201.092, "unit": "RLU"},
      {"measurement": "RLU", "setting": "Time 185.578 s", "value": 199.988, "unit": "RLU"},
      {"measurement": "RLU", "setting": "Time 191.578 s", "value": 157.165, "unit": "RLU"},
      {"measurement": "RLU", "setting": "Time 197.578 s", "value": 150.89, "unit": "RLU"},
      {"measurement": "RLU", "setting": "Time 203.578 s", "value": 157.65, "unit": "RLU"},
      {"measurement": "RLU", "setting": "Time 209.578 s", "value": 119.607, "unit": "RLU"},
      {"measurement": "RLU", "setting": "Time 215.578 s", "value": 114.651, "unit": "RLU"},
      {"measurement": "RLU", "setting": "Time 221.578 s", "value": 111.289, "unit": "RLU"},
      {"measurement": "RLU", "setting": "Time 227.578 s", "value": 125.554, "unit": "RLU"},
      {"measurement": "RLU", "setting": "Time 233.578 s", "value": 124.837, "unit": "RLU"},
      {"measurement": "RLU", "setting": "Time 239.578 s", "value": 148.185, "unit": "RLU"},
      {"measurement": "RLU", "setting": "Time 245.578 s", "value": 121.449, "unit": "RLU"},
      {"measurement": "RLU", "setting": "Time 293.578 s", "value": 139.355, "unit": "RLU"},
      {"measurement": "RLU", "setting": "Time 299.578 s", "value": 114.827, "unit": "RLU"},
      {"measurement": "RLU", "setting": "Time 305.578 s", "value": 107.043, "unit": "RLU"},
      {"measurement": "RLU", "setting": "Time 311.578 s", "value": 92.604, "unit": "RLU"},
      {"measurement": "RLU", "setting": "Time 317.578 s", "value": 88.3008, "unit": "RLU"},
      {"measurement": "RLU", "setting": "Time 323.578 s", "value": 90.2384, "unit": "RLU"},
      {"measurement": "RLU", "setting": "Time 329.578 s", "value": 71.9932, "unit": "RLU"},
      {"measurement": "RLU", "setting": "Time 335.578 s", "value": 67.9746, "unit": "RLU"},
      {"measurement": "RLU", "setting": "Time 341.578 s", "value": 66.5352, "unit": "RLU"},
      {"measurement": "RLU", "setting": "Time 347.578 s", "value": 80.5392, "unit": "RLU"},
      {"measurement": "RLU", "setting": "Time 353.578 s", "value": 85.9834, "unit": "RLU"},
      {"measurement": "RLU", "setting": "Time 359.578 s", "value": 89.3996, "unit": "RLU"},
      {"measurement": "Activation threshold concentration Tas2r144", "setting": "p < 0.01 vs empty vector", "value": 3, "unit": "µM"}
    ]}
  ]
}
